What was measured:
[1] = tested on: IL-6 mRNA; assay: LPS-dependent IL-6 mRNA in THP-1-derived macrophages (RT-PCR); type: cell-based, human; conditions: 50 µM, 10 ng/ml LPS 6 h
Procedure: F i g u re S3: Eff ect of benzofuran compounds on the lev els of LP S -dependent mRNA of CCL2 and IL-6 in THP-1 –deriv ed macrophages. Human-monoc yti c cell l ine-THP-1 wer e treat ed with PMA (25 nM for 48 hours) th en in cub ated with 50 μM compounds for 30 minutes b efo re the addit ion of 10 ng/ml LP S fo r 6 hours. Gene ex pression of IL6 and CCL2 were measur ed by RT-PCR and the v alu es wer e nor mal ized to GAPDH. Results represent means ± SEM by one way ANOVA followed by Dunnett test.

[2] = tested on: COX-2 protein expression; assay: COX-2 protein expression in LPS-treated macrophages (Western blot); type: cell-based, C57BL/6J mice; conditions: 10 µM for compounds 1, 7, 9, 50 µM for others, LPS 24 h
Procedure: Figure 4 Effects of the fluorinated benzofuran and dihydrobenzofuran on COX-2 and NOS2 protein expressions. COX-2 and NOS2 protein expressions were assessed in macrophages incubated with only 10 µM for compounds 1, 7, and 9, and 50 µM for the other compounds, for 30 min prior to the addition of 10 ng/mL LPS for 24 h. β-actin was used as a loading control, and densitometric analysis was performed using ImageJ software (NIH, MA). Data are expressed as fold of LPS-treated macrophages and represented as mean ± SEM of 4 different experiments; * p < 0.05 versus LPS (one-way ANOVA followed by Dunnett’s test).
Macrophages were incubated with the compounds for 30 min prior to the addition of 10 ng/mL LPS for 24 h. Protein levels for COX-2 and NOS2 were detected in LPS-stimulated macrophages. As previously described, 10 µg of total protein was assessed. The primary antibodies were developed and characterized as previously described: for COX-2, mouse monoclonal antibody anti-COX-2 (clone COX-214, 1/5000); for NOS2, rabbit polyclonal antibody anti-NOS2 (dilution1/2000 [33]). Antibodies anti-phospho-NF-κB (3033S), phospho-IκBα (9246S), and total IκBα (4814S) were from Cell Signaling Technologies (Danvers, MA, USA). Total NF-κB C-20 (sc-372) was from Santa Cruz Biotechnologies (Dallas, TX, USA), and mouse β-actin (dilution 1/10,000) (Sigma-Aldrich, A5441). Clarity™ western ECL substrate (Bio-Rad Laboratories 10-5061) was used according to the manufacturer’s instructions to reveal positive bands visualized using Bio-Rad ChemiDoc. For Bcl-2 and cleaved PARP-1, HCT116 cells were plated in 6-well plates (200,000 cells per well) for 24 h, and treated with compounds 1 and 2 at 10, 25, and 50 µM for 72 h. Supernatants and cells were collected and lysed using RIPA lysis buffer containing inhibitors of protease. Western blot of Bcl-2 and cleaved PARP-1 was performed using 25 µg of total protein with a rabbit polyclonal antibody anti-Bcl-2 (1/500) (Santa Cruz Biotechnology, sc-492), rabbit polyclonal antibody anti-PARP-1 (1/1000) (Santa Cruz Biotechnology, sc-7150), and mouse anti-β-actin (dilution 1/10,000) (Sigma-Aldrich, A5441).
Densitometric analyses were performed using ImageJ software (NIH, MA, USA). The ratio of the different analyzed bands to β-actin was determined and data are represented as fold change compared to the LPS-treated cells. Percentage of viable cells for proliferation assay was determined as percentage to control (non-treated cells). For TUNEL assay, apoptotic cells were quantified, and results were expressed as percentage to positive cells (cleaved DNA) compared to control (non-treated cells). Statistical analysis was performed using one-way ANOVA, followed by Dunnett’s multiple comparisons test using GraphPad Prism software. Differences were considered significant when p < 0.05.

[3] = tested on: PGE2; assay: PGE2 release in LPS-treated macrophages (BMDM); type: cell-based, C57BL/6J mice; conditions: 10 µM for compounds 1, 7, 9, 50 µM for others, 10 ng/mL LPS 24 h
Procedure: C57BL/6J (10–15 weeks old) male mice were obtained from the animal care facility at the American University of Beirut. All animal procedures were performed following the recommendations of the IACUC (Institutional Animal Care and Use Committee approval 16-09-M379). BMDMs were prepared and characterized as described previously by our group. BMDMs were isolated from C57BL/6J mice by flushing the femur and tibia with RPMI-1640 culture media (Sigma-Aldrich R7388), and cells were collected and centrifuged at 300× g for 5 min. The supernatant was discarded, and the pellet was resuspended in 2 mL red blood lysis 10% (Sigma-Aldrich R7767) medium in PBS and incubated for 5 min at room temperature. After diluting the suspension of cells with 5 mL of RPMI containing 10% FBS and 1% penicillin–streptomycin, cells were centrifuged at 300× g for 5 min, and the cell pellet was resuspended in RPMI media containing 10% FBS supplemented with 15% L929-conditioned medium containing macrophage-colony stimulating factor (M-CSF1) and plated on […]. Cells were allowed to proliferate and differentiate for 5–6 days. Cells were harvested, washed, and allowed to adhere overnight in RPMI containing 10% FBS for treatment. Cells were previously characterized by flow cytometry as macrophages using this method. […] Cells were plated at 0.8 × 10^6 cells per 3.8 cm^2 well [27].
BMDMs were then treated with different concentrations of the benzofuran and dihydrobenzofuran derivatives for 30 min prior to the addition of 10 ng/mL LPS for 24 h. […] The supernatants were assessed for IL-6, PGE2, CCL2, and nitrite, the stable derivative of NO, as described previously.
(§1) IL-6, CCL2, nitrite (for NO), and PGE2 concentrations from 3–5 independent experiments were expressed as percentage of LPS alone and as mean ± SEM. COX activity was determined as percentage of PGE2 produced from exogenous arachidonic acid. Curve fitting and calculation of IC50 values were performed using GraphPad Prism (version 9.5.1 Software, La Jolla, CA, USA).

[4] = biological target: T1, COX-1 (Homo sapiens, UniProt P23219); assay: COX-1 activity: PGE2 from exogenous arachidonic acid in HEK-293 cells overexpressing COX-1; type: cell-based; conditions: 10 µM for compounds 1, 7, 9, 50 µM for others; 10 µM arachidonic acid
T1 construct: expressed in transfected cells
T1 sequence (P23219 24-599): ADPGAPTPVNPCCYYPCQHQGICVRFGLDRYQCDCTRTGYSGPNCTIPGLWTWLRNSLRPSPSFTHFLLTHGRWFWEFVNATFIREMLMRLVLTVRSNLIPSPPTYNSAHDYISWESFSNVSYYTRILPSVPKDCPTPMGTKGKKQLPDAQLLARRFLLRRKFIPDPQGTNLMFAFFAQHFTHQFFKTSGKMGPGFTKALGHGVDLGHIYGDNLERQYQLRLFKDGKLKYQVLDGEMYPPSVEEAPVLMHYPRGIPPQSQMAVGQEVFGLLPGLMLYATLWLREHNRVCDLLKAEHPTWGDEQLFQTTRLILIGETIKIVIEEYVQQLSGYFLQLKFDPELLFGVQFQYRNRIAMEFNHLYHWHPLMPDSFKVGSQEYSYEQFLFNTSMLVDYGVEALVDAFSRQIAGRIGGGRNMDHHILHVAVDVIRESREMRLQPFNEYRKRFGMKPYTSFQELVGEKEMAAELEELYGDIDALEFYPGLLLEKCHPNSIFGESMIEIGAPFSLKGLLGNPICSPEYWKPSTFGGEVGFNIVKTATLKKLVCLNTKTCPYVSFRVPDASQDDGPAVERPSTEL
Procedure: Figure 3 Effects of the fluorinated benzofuran and dihydrobenzofuran on COX-1 and COX-2 activities. (A) Illustration for COX-1 activity assay. HEK-293 cells stably overexpressing COX-1 are treated with the nine derivatives of benzofuran at concentrations of only 10 µM for compounds 1, 7, and 9, and 50 µM for the other compounds, 30 min prior to the addition of 10 µM arachidonic acid (AA). […] (B) COX-1 activity. […] Levels of PGE2 were very low in the absence of arachidonic acid (0.04 ± 0.01 ng/mL) and 104.3 ± 16.7 ng/mL for 10 µM AA. (C) Illustration for COX-2 activity determination. Macrophages are treated with 10 µM of aspirin (ASA) for 30 min to block basal COX activity, washed, and treated with 10 ng/mL LPS for 24 h to induce COX-2. Cells are then washed and incubated 30 min with 50 µM of the different compounds prior to the addition of 10 µM of AA. The produced PGE2 mainly reflects COX-2 activity. (D) COX-2 activity. Percentage of LPS-treated cells was calculated, and data are represented as mean ± SEM (n = 4); * p < 0.05 versus AA for COX-1 activity, and versus LPS + ASA + AA for COX-2 activity (one-way ANOVA followed by Dunnett’s test). […] Levels of PGE2 were very low in the absence of arachidonic acid (0.06 ± 0.01 ng/mL) and 71.7 ± 5.7 ng/mL for 10 µM AA.
COX-1 and COX-2 activities were performed as described previously in human embryonic kidney cell line (HEK-293) stably overexpressing COX-1 [19] and in macrophages, respectively. […] For both COX-1 and COX-2 assays, the benzofuran compounds were then added to the cells for 30 min prior to the incubation with 10 µM arachidonic acid for another 30 min. PGE2 was then measured using an enzyme immunoassay, as described previously.
as §1

[5] = Toxicity on macrophages (BMDM), WST-1 assay; type: cell-based, C57BL/6J mice; conditions: C57BL/6J, mouse, bone marrow-derived macrophages (BMDM), read-out: macrophage viability
Procedure: WST-1 assay (Sigma-Aldrich, 5015944001) was used to determine the toxicity of the synthesized compounds on BMDM and HCT116 (ATCC, CCL-247), kindly provided by Dr. Nadine Darwiche, Department of Biochemistry and Molecular Genetics, American University of Beirut, Lebanon. Briefly, macrophages (50,000 cells per well) and HCT116 (20,000 cells per well) were plated in a 96-well plate in RPMI 1640 culture medium containing 10% fetal bovine serum (FBS) and grown for 24 h. Cells (in triplicates) were treated with 10 or 50 μM of the compounds for macrophages, and 50 or 100 μM for HCT116. Culture medium without cells and cells without treatment were used as basal and maximal activity, respectively. Results were expressed as percentage of cells without treatment.
F i g u re S1: E ff e c t of fluorin at ed benzofuran derivatives on m acrophages
viabilit y. C ells in cub at ed with 10 and 50 μM of benzofuran d eri vativ es
(compounds 1 to 9) bel onging to groups І, II, III and IV for 24 hours. Cell
viabilit y w as det ermin ed by WST-1 assay. Non-t r eated m acrophages wer e used
as cont rol. Results were shown as mean ± SEM (n=3) . *p< 0.05 comp ar ed to the
vehicle –treated cells (basal), one-way ANOVA followed by Dunnett’s test.
(1 picture or pasted object on this page, not shown here)

SMILES | effect on IL-6 mRNA levels [1] | effect on LPS-induced COX-2 protein expression [2] | effect on PGE2 production in response to LPS [3] | effect on COX-1 activity [4] | viability at 24 h, 50 µM [5] [%]
O=C(O)/C=C1/Oc2ccccc2C1(F)F [Compound 4] | to a lesser extent | loss of this inhibitory effect |  |  | 
COC(=O)CC1(SCCO)Oc2ccc(Br)cc2C1(F)F (stereo not drawn) [Compound 7] |  |  | loss of the inhibitory activity | loss of the inhibitory activity | 50
COC(=O)C1CC(C)=C(C)CC12Oc1ccc(Br)cc1C2(F)F (stereo not drawn) [Compound 9] |  |  |  |  | 50
